The values that follow come from PubChem BioAssay (NCI).

This assay has as its system MDA-MB-468 breast. Briefly: NCI-60 cell line screen, 48 h.

Molecules are shown by their SMILES.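 Method: 48-hour compound exposure of cells in 96-well plates, five concentrations, linear interpolation of endpoints. At the GI50, growth is halved. TGI marks complete inhibition of growth.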 Where a SMILES comes first, the peptide text is derived from it. [ ]: non-standard residue; d: D form. The star is where a group is joined. Lauroyl = CCCCCCCCCCCC(=O)*; Aib = CC(C)(N)C(=O)O; βAla = NCCC(=O)O Some results are limits rather than exact numbers.

Regarding `O=C(Nc1ccc(Nc2ccncc2)cc1)c1ccc([N+](=O)[O-])cc1`, the GI50 was 1.75 µM and the TGI was 5.2 µM.
Taken in the same sequence, the figures for `CN1CCN(C2CCN(C(=O)Nc3cc(Oc4ccc(NC(=O)C5(C(=O)Nc6ccc(F)cc6)CC5)c(F)c4)ccn3)CC2)CC1` were 1.03 µM and above 2.41 µM.
Turning to `CCOC(=O)C1=CN(C)C=C(C(=O)OCC)C1c1cc(Br)c(OCC)c(OC)c1`, the GI50 was above 100 µM and the TGI is above 100 µM.
Consider `c1ccc(-c2nnc(-c3ccccn3)s2)nc1`, for which the GI50 was 9.76 µM and the TGI is above 100 µM.
As to `Nc1nn2cc(F)cnc2c1C(=O)Nc1cncc(F)c1N1CCC(C(=O)N2CCN(C3COC3)CC2)CC1`, the GI50 is 0.165 µM and the TGI amounted to 0.682 µM.
`Cc1ccc(SC2c3ccc(C)cc3Oc3nc(N)c(C#N)c(N)c32)cc1` (stereo not drawn): the GI50 was 1.77 µM and the TGI stood at 3.74 µM.
As for `COC(=O)C[C@](O)(CCCC(C)(C)O)C(=O)O[C@@H]1C(OC)=C[C@]23CCCN2CCc2cc4c(cc2[C@H]13)OCO4`, the GI50 was 0.0102 µM and the TGI was determined as 0.0367 µM.
Taken in the same sequence, the figures for `Nc1ccc([N+](=O)[O-])cc1N=C/C=C/c1ccccc1` were 4.68 µM and 43 µM.
On to `NC(=S)N/N=C/C(=O)O`, for which the GI50 was 23.9 µM and the TGI was above 100 µM.
Taken in the same sequence, the figures for `COc1ccc(Sc2[nH]c(C(C)=O)c3ccccc23)cc1` were 3.89 µM and 41.4 µM.
Consider `CCN(CC)CCC(CNc1ccnc2cc(Cl)ccc12)c1ccc(Cl)cc1` (stereo not drawn), for which the GI50 was 0.413 µM and the TGI amounted to 1.52 µM.
With `COc1cccc(CC(C)=C(c2ccc(OCCN(C)C)cc2)c2ccc(OCCN(C)C)cc2)c1`, the GI50 was 1.16 µM and the TGI is 5.26 µM.
For `COc1ccc(/C=C\[N+](=O)[O-])cc1OC`, in that order: 3.05 µM and 11.3 µM.
Taken in the same sequence, the figures for `O=C(O)COc1ccc2c(=O)c3sc4c(=O)c5ccccc5c(=O)c4c3c(=O)c2c1` were 14.9 µM and 35.4 µM.
For `Cn1c(I)c(C#CCO[Si](C)(C)C(C)(C)C)c(=O)[nH]c1=O`, in that order: 1.88 µM and 4.33 µM.
Turning to `CCN1CCN(C(=O)[C@@]2(C)CC[C@]3(C)CC[C@]4(C)C(=CC(=O)[C@@H]5[C@@]6(C)CC[C@H](OC7C[C@@H](O)[C@@H](O)C(C)O7)C(C)(C)[C@@H]6CC[C@]54C)[C@@H]3C2)CC1` (stereo partly drawn), the GI50 was 1.49 µM and the TGI turned out to be 6.17 µM.
Taken in the same sequence, the figures for `CC/C=C\C[C@H](O)C/C=C1/C(=O)C(Cl)=C[C@@H]1C/C=C\CCCC(=O)OC` were 0.554 µM and 3.06 µM.
For `COc1ccc(OC)c2c1[nH]c(=O)c1c3ccccc3cn21`, in that order: 1.08 µM and 2.55 µM.
Regarding `Oc1ccc(Nc2ncnc3c2sc2ncccc23)cc1`, the GI50 is 0.0751 µM and the TGI was 21 µM.
Taken in the same sequence, the figures for `COc1ccccc1/C=N\N/C(N)=N\N=C\c1ccccc1OC` were 0.613 µM and above 45.7 µM.
In the case of `CCCCCCCCCCCC(=O)NC(C)(C)C(=O)N1CCCC1C(=O)NC(C)(C)C(=O)NC(C)(C)C(=O)N1CCCC1C(=O)NC(C)(C)C(=O)NC(C)(C)C(=O)N1CCCC1C(=O)NC(C)C(=O)NCCC(=O)NC(C)C(=O)NC(C)(C)C(=O)NC(C)(C)C(=O)NC(C)(C)C(=O)NCCC(=O)NC(C)(C)C(=O)NC(C)(C)C(=O)NC(C)(C)C(=O)NC(C)C(=O)NCCC(=O)O` (stereo not drawn) (Lauroyl-[Aib]P[Aib][Aib]P[Aib][Aib]PA[βAla]A[Aib][Aib][Aib][βAla][Aib][Aib][Aib]A[βAla]-OH; configuration not given here), the GI50 was 0.328 µM and the TGI came to 0.739 µM.
Taken in the same sequence, the figures for `Cn1cc(C2=C(c3ccc(N)cc3)C(=O)NC2=O)c2ccccc21` were 7.84 µM and above 25 µM.
Taken in the same sequence, the figures for `O=C(Nc1ccc(Br)cc1F)c1cc(F)ccc1O` were 1.13 µM and 4.92 µM.
For `COc1cccc(F)c1C(=O)c1cnc(NC2CCN(S(C)(=O)=O)CC2)nc1N`, in that order: 3.75 µM and 9.91 µM.
For the compound `CC1(C)N=C(N)N=C(N)N1c1ccc(CCCCc2ccc(Cl)cc2S(=O)(=O)F)c(Cl)c1`, the GI50 is 0.569 µM and the TGI turned out to be 5.87 µM.
In the case of `Cc1cc(C)c2c(n1)sc1c(Nc3ccc(Cl)cc3)ncnc12`, the GI50 was 0.0218 µM and the TGI was 27 µM.
Turning to `C#CCOc1cccc(-c2ncc3cc(NC(=O)CCl)ccc3n2)c1`, the GI50 was 1.74 µM and the TGI worked out at 3.55 µM.
With `CNCc1ccccc1-c1csc([C@@H](C)Nc2nc(C)nc3cc(OC)c(OC)cc23)c1`, the GI50 is 1.1 µM and the TGI was determined as 2.59 µM.
For `COc1cc(Nc2ncccc2C(=O)NCc2cn(Cc3cccc(Oc4ccccc4)c3)nn2)cc(OC)c1`, in that order: 2.42 µM and 7.01 µM.
Taken in the same sequence, the figures for `CC(=O)Nc1ccc(S(=O)(=O)N2C(=O)CCC2C(=O)Nc2ccc(Br)cc2)cc1` (stereo not drawn) were 1.02 µM and 5.55 µM.
Taken in the same sequence, the figures for `Cc1cc(Cl)cc(OCCn2cc(F)cn2)c1-c1nc(N)nc2c1CN(C(=O)NCC(C)(F)F)C2` were 0.0361 µM and 3.13 µM.
For the compound `COC(=O)c1ccc2c(c1)nc(NC(=O)c1ccccc1)n2CCCc1ccccc1`, the GI50 was 3.05 µM and the TGI is above 80 µM.
Taken in the same sequence, the figures for `C[N+](C)(C)CC1CCCc2ccccc2C1=O` (stereo not drawn) were 1.91 µM and 3.76 µM.
Taken in the same sequence, the figures for `CC1(C)[C@@H](O)CC[C@]2(C)[C@H]3CC[C@@H]4[C@H]5[C@H](C(=O)/C=C\c6ccccn6)CC[C@]5(O)CC[C@@]4(C)[C@]3(C)CC[C@@H]12` were 1.4 µM and 3.96 µM.
`C=C(C=O)[C@@H]1CC[C@]2(CO)CC[C@]3(C)[C@H](CC[C@@H]4[C@@]5(C)CCCNC(C)(C)[C@@H]5CC[C@]43C)[C@@H]12`: the GI50 was 3.77 µM and the TGI stood at 16.5 µM.
For `CCCn1cnc2c(c1=N)C(c1ccc(Cl)cc1)c1sc3c(CC)cccc3c1O2` (stereo not drawn), in that order: 0.508 µM and 4.14 µM.
Regarding `COc1cc(OCc2cccc(-c3ccc(C(O)c4nccs4)cc3)c2C)cc(OC)c1C=O` (stereo not drawn), the GI50 was 0.267 µM and the TGI worked out at 2.51 µM.
Turning to `NC(=O)/C=C/C(=O)c1c(Cl)cccc1Cl`, the GI50 is 0.292 µM and the TGI turned out to be 0.971 µM.
For `N#Cc1c(NC(=O)NCc2ccccc2)sc2c1CCCCC2`, in that order: 0.317 µM and 3.52 µM.
